Test results as given in ChEMBL document CHEMBL1201862, “PubChem BioAssay data set” (2004).
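Test compounds were applied to cells in 96-well plates for 48 hours at 5 doses. GI50 is the concentration that inhibits growth by half.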 Active and inactive are the calls of the source. Rule as the data show it: active = GI50 up to about 1.1 µM and inactive = higher.

What was measured:
Assay in all cases: NCI anticancer screen, dose series, 48 h
[1] = system: NCI-H226
[2] = system: SK-MEL-5
[3] = system: HCC 2998
[4] = system: SW-620
[5] = system: KM12
[6] = system: SNB-75
[7] = system: OVCAR-5
[8] = system: SK-MEL-2
[9] = system: SK-MEL-28
[10] = system: UACC-257
[11] = system: A498
[12] = system: OVCAR-8
[13] = system: SK-OV-3
[14] = system: U-251
[15] = system: CAKI-1
[16] = system: HOP-62
[17] = system: M14
[18] = system: LOX IMVI
[19] = system: RPMI-8226

Measured: GI50

Oc1ncnc2c1sc(=S)n2-c1ccccc1
inactive: [1] > 100 µM | [2] > 100 µM | [3] > 100 µM | [4] > 100 µM | [5] > 100 µM | [6] > 100 µM | [7] > 100 µM | [8] > 100 µM | [9] > 100 µM | [10] > 100 µM | [11] 94.8 µM | [12] > 100 µM | [13] > 100 µM | [14] > 100 µM | [15] > 100 µM | [16] > 100 µM | [17] > 100 µM | [18] > 100 µM

CN(C)CCCNc1ccc2ncn3c4ccccc4c(=O)c1c23
inactive: [1] 7.21 µM | [19] 4.71 µM | [4] 4.71 µM | [5] 5.87 µM | [6] 10.5 µM | [7] 10.7 µM | [8] 13.6 µM | [9] 31.6 µM | [10] 14.6 µM | [11] > 10 µM | [12] 4.9 µM | [13] 8.59 µM | [14] 11.4 µM | [16] 33.6 µM | [17] 9.66 µM | [18] 3.51 µM

CC1=C(O)/C(=C/C(C)CCC/C(C)=C/C=C/C(C)CCCc2ccoc2)OC1=O (centres undefined)
inactive: [1] 23.2 µM | [3] 23 µM | [4] 33.3 µM | [5] 34.4 µM | [6] 25.2 µM | [7] 23.8 µM | [8] 25.5 µM | [9] 25 µM | [10] 21.7 µM | [12] 34.4 µM | [14] 37.8 µM | [15] 45.5 µM | [16] 18.5 µM | [17] 36 µM | [18] 34.2 µM

CC(C)(C)/N=C\N1CCC(C(c2ccccc2)c2ccccc2)CC1
inactive: [2] 67 µM | [19] 45.2 µM | [4] > 100 µM | [5] 65.8 µM | [6] 21.9 µM | [7] 54.2 µM | [8] > 100 µM | [9] 43.4 µM | [10] 37.3 µM | [11] 38.3 µM | [12] > 100 µM | [14] 60.4 µM | [15] 42.4 µM | [16] > 100 µM | [18] 23.8 µM

CCn1c(SC(C)C(=O)c2c(C)n(C)n(-c3ccccc3)c2=O)nc2ccccc2c1=O (centres undefined)
inactive: [1] > 100 µM | [2] > 100 µM | [19] 95.1 µM | [5] > 100 µM | [6] > 100 µM | [7] > 100 µM | [8] > 100 µM | [9] > 100 µM | [10] > 100 µM | [11] > 100 µM | [12] > 100 µM | [13] > 100 µM | [14] > 100 µM | [16] > 100 µM | [17] > 100 µM | [18] > 100 µM

Cc1cc(C)c(S(=O)(=O)N2CCN(S(=O)(=O)c3c(C)cc(C)cc3C)OCCCCCO2)c(C)c1
inactive: [1] > 100 µM | [2] > 100 µM | [4] > 100 µM | [5] > 100 µM | [7] > 100 µM | [8] > 100 µM | [9] > 100 µM | [10] > 100 µM | [11] > 100 µM | [12] > 100 µM | [13] > 100 µM | [14] > 100 µM | [15] > 100 µM | [16] > 100 µM | [17] > 100 µM | [18] > 100 µM

NS(=O)(=O)c1ccc(NC(=O)Cc2nc3ccccc3s2)cc1
inactive: [1] 17.9 µM | [2] 20.2 µM | [3] 19.5 µM | [19] 21.3 µM | [4] 17.1 µM | [5] 16.3 µM | [6] 16.4 µM | [7] 20.7 µM | [8] 14.9 µM | [9] 17.7 µM | [10] 15.8 µM | [11] 21.1 µM | [12] 20.4 µM | [13] 25.7 µM | [14] 15.2 µM | [15] 16.5 µM | [16] 22.3 µM | [17] 15.7 µM

CC1(C)CC2(S(=O)(=O)c3ccccc3)ON1CC2S(=O)(=O)c1ccccc1 (centres undefined)
inactive: [1] > 100 µM | [3] > 100 µM | [19] 35.7 µM | [4] > 100 µM | [5] > 100 µM | [6] > 100 µM | [7] > 100 µM | [8] > 100 µM | [9] 86.1 µM | [10] > 100 µM | [12] 74.1 µM | [13] > 100 µM | [14] > 100 µM | [15] 77.3 µM | [16] > 100 µM | [17] > 100 µM | [18] 87.1 µM

CCCCCCCCCCCCCCC(C)CCC(=O)O (centres undefined)
inactive: [1] > 100 µM | [2] > 100 µM | [4] > 100 µM | [5] 49.8 µM | [6] > 100 µM | [7] > 100 µM | [8] 60 µM | [9] > 100 µM | [10] > 100 µM | [11] > 100 µM | [12] > 100 µM | [14] 52.5 µM | [15] > 100 µM | [16] > 100 µM | [18] 31.6 µM

O/N=C1/C(=C/c2ccc3c(c2)OCO3)CCCC1C(NO)c1ccc2c(c1)OCO2 (centres undefined)
inactive: [2] 17.4 µM | [3] 25 µM | [19] 18.8 µM | [4] 30.8 µM | [5] 22.7 µM | [6] 27.2 µM | [8] 21.4 µM | [9] 21.7 µM | [10] 17.8 µM | [11] 26.5 µM | [12] 24.6 µM | [13] 48.2 µM | [14] 20.8 µM | [15] 28.6 µM | [16] 21.1 µM | [17] 19.5 µM

COc1cc(OC)c(SSCCCCS(=O)O)c(OC)c1
inactive: [2] 10.4 µM | [3] 20.1 µM | [4] 13.9 µM | [5] 14.9 µM | [6] 10.6 µM | [7] 16.6 µM | [8] 19.5 µM | [9] 15 µM | [10] 10.7 µM | [11] 14.6 µM | [12] 16 µM | [13] 23.8 µM | [14] 14.5 µM | [15] > 10 µM | [16] 26.2 µM | [17] 14.3 µM | [18] 10.7 µM

C[N+](C)(C)CC1CCCC(C[N+](C)(C)C)C1=NO (centres undefined)
inactive: [1] > 100 µM | [2] > 100 µM | [19] > 100 µM | [4] > 100 µM | [5] > 100 µM | [6] > 100 µM | [7] > 100 µM | [8] > 100 µM | [9] > 100 µM | [10] > 100 µM | [12] > 100 µM | [13] > 100 µM | [14] > 100 µM | [15] > 100 µM | [17] > 100 µM
